# Results from PubChem BioAssay AID2060488 (Molecular Pharmacology Branch, DTP, NCI, 2025).
# System: 966289-007-R4-J1-PDC complex spheroid viability
# Assay: Anticancer human tumor 966289-007-R4-J1-PDC patient-derived pancreatic adenocarcinoma cell line growth inhibition [GQUAD]
# Conditions: for IC50: curve of first compound; for viability, T/C: stronger effect = lower value
# Procedure, shortened: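 Viability of tumor cells grown as complex spheroids with endothelial and stromal cells, exposed to drug combinations. Top concentration at or near clinical Cmax (else 10 microM), diluted in half-log increments.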
# [1] = second compound 0.0316 µM, first compound 0.0316 µM
# [2] = second compound 0.0316 µM, first compound 0.1 µM
# [3] = second compound 0.0316 µM, first compound 0.316 µM
# [4] = second compound 0.0316 µM, first compound 1 µM
# [5] = second compound 0.0316 µM, first compound 3.16 µM
# [6] = second compound 0.0316 µM, first compound 10 µM
# [7] = second compound 0.1 µM, first compound 0.0316 µM
# [8] = second compound 0.1 µM, first compound 0.1 µM
# [9] = second compound 0.1 µM, first compound 0.316 µM
# [10] = second compound 0.1 µM, first compound 1 µM
# [11] = second compound 0.1 µM, first compound 3.16 µM
# [12] = second compound 0.1 µM, first compound 10 µM
# [13] = second compound 0.316 µM, first compound 0.0316 µM
# [14] = second compound 0.316 µM, first compound 0.1 µM
# [15] = second compound 0.316 µM, first compound 0.316 µM
# [16] = second compound 0.316 µM, first compound 1 µM
# [17] = second compound 0.316 µM, first compound 3.16 µM
# [18] = second compound 0.316 µM, first compound 10 µM
# [19] = second compound 1 µM, first compound 0.0316 µM
# [20] = second compound 1 µM, first compound 0.1 µM
# [21] = second compound 1 µM, first compound 0.316 µM
# [22] = second compound 1 µM, first compound 1 µM
# [23] = second compound 1 µM, first compound 3.16 µM
# [24] = second compound 1 µM, first compound 10 µM
# [25] = second compound 3.16 µM, first compound 0.0316 µM
# [26] = second compound 3.16 µM, first compound 0.1 µM
# [27] = second compound 3.16 µM, first compound 0.316 µM
# [28] = second compound 3.16 µM, first compound 1 µM
# [29] = second compound 3.16 µM, first compound 3.16 µM
# [30] = second compound 3.16 µM, first compound 10 µM
# [31] = second compound 10 µM, first compound 0.0316 µM
# [32] = second compound 10 µM, first compound 0.1 µM
# [33] = second compound 10 µM, first compound 0.316 µM
# [34] = second compound 10 µM, first compound 1 µM
# [35] = second compound 10 µM, first compound 3.16 µM
# [36] = second compound 10 µM, first compound 10 µM
# 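Note: spheroids exposed to the agents for seven days before readout.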
# 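Throughout, for viability, T/C: percent viability relative to DMSO vehicle control wells taken as 100%.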
compound,measurement,setting,value
CC(C)(O)C1CCC(Nc2ccc3ncc(-c4cccc(C(F)(F)F)c4)n3n2)CC1 (stereo not drawn) + Cc1cnc(CNC(=O)c2c(=O)c3ccc(N4CCCN(C)CC4)nc3n3c2sc2ccccc23)cn1,IC50,second compound 0.0316 µM,2060 nM
same,IC50,second compound 0.1 µM,< 31.6 nM
same,IC50,second compound 0.316 µM,< 31.6 nM
same,IC50,second compound 1 µM,< 31.6 nM
same,IC50,second compound 3.16 µM,< 31.6 nM
same,IC50,second compound 10 µM,< 31.6 nM
same,"viability, T/C",[1],103%
same,"viability, T/C",[2],105%
same,"viability, T/C",[3],108%
same,"viability, T/C",[4],97.3%
same,"viability, T/C",[5],22%
same,"viability, T/C",[6],16.9%
same,"viability, T/C",[7],32%
same,"viability, T/C",[8],29.9%
same,"viability, T/C",[9],35.4%
same,"viability, T/C",[10],26%
same,"viability, T/C",[11],5.94%
same,"viability, T/C",[12],7.03%
same,"viability, T/C",[13],8.94%
same,"viability, T/C",[14],10.5%
same,"viability, T/C",[15],9.21%
same,"viability, T/C",[16],9.55%
same,"viability, T/C",[17],3.64%
same,"viability, T/C",[18],2.73%
same,"viability, T/C",[19],6.09%
same,"viability, T/C",[20],5.79%
same,"viability, T/C",[21],5.01%
same,"viability, T/C",[22],4.88%
same,"viability, T/C",[23],0.44%
same,"viability, T/C",[24],0.4%
same,"viability, T/C",[25],3.22%
same,"viability, T/C",[26],4.22%
same,"viability, T/C",[27],3.14%
same,"viability, T/C",[28],0.95%
same,"viability, T/C",[29],0.08%
same,"viability, T/C",[30],0.08%
same,"viability, T/C",[31],0.04%
same,"viability, T/C",[32],0.09%
same,"viability, T/C",[33],0.14%
same,"viability, T/C",[34],0.13%
same,"viability, T/C",[35],0.14%
same,"viability, T/C",[36],0.14%
CC(=O)O[C@H]1C(=O)[C@@]2(C)[C@H]([C@H](OC(=O)c3ccccc3)[C@]3(O)C[C@H](OC(=O)[C@H](O)[C@@H](NC(=O)c4ccccc4)c4ccccc4)C(C)=C1C3(C)C)[C@]1(OC(C)=O)CO[C@@H]1C[C@@H]2O + CN(C)c1ccc(Nc2c3ccc(NC(=O)CCN4CCCC4)cc3nc3cc(NC(=O)CCN4CCCC4)ccc23)cc1,IC50,second compound 0.0316 µM,< 31.6 nM
same,IC50,second compound 0.1 µM,< 31.6 nM
same,IC50,second compound 0.316 µM,< 31.6 nM
same,IC50,second compound 1 µM,< 31.6 nM
same,IC50,second compound 3.16 µM,< 31.6 nM
same,IC50,second compound 10 µM,< 31.6 nM
same,"viability, T/C",[1],6.18%
same,"viability, T/C",[2],3.03%
same,"viability, T/C",[3],4.68%
same,"viability, T/C",[4],5.91%
same,"viability, T/C",[5],9.45%
same,"viability, T/C",[6],14.6%
same,"viability, T/C",[7],6.28%
same,"viability, T/C",[8],3.31%
same,"viability, T/C",[9],4.65%
same,"viability, T/C",[10],7.21%
same,"viability, T/C",[11],8.08%
same,"viability, T/C",[12],13.5%
same,"viability, T/C",[13],6.93%
same,"viability, T/C",[14],3.41%
same,"viability, T/C",[15],4.38%
same,"viability, T/C",[16],6.89%
same,"viability, T/C",[17],8.86%
same,"viability, T/C",[18],12.6%
same,"viability, T/C",[19],6.47%
same,"viability, T/C",[20],3.38%
same,"viability, T/C",[21],4.34%
same,"viability, T/C",[22],6.41%
same,"viability, T/C",[23],9.91%
same,"viability, T/C",[24],12%
same,"viability, T/C",[25],5.06%
same,"viability, T/C",[26],3.06%
same,"viability, T/C",[27],4.72%
same,"viability, T/C",[28],6.71%
same,"viability, T/C",[29],7.72%
same,"viability, T/C",[30],11.3%
same,"viability, T/C",[31],3.86%
same,"viability, T/C",[32],2.35%
same,"viability, T/C",[33],3.67%
same,"viability, T/C",[34],4.43%
same,"viability, T/C",[35],6.04%
same,"viability, T/C",[36],6.46%
C=CCn1c(=O)c2cnc(Nc3ccc(N4CCN(C)CC4)cc3)nc2n1-c1cccc(C(C)(C)O)n1 + CN(C)c1ccc(Nc2c3ccc(NC(=O)CCN4CCCC4)cc3nc3cc(NC(=O)CCN4CCCC4)ccc23)cc1,IC50,second compound 0.0316 µM,1850 nM
same,IC50,second compound 0.1 µM,1880 nM
same,IC50,second compound 0.316 µM,1900 nM
same,IC50,second compound 1 µM,1900 nM
same,IC50,second compound 3.16 µM,1750 nM
same,IC50,second compound 10 µM,1320 nM
same,"viability, T/C",[1],104%
same,"viability, T/C",[2],103%
same,"viability, T/C",[3],113%
same,"viability, T/C",[4],99.8%
same,"viability, T/C",[5],6.96%
same,"viability, T/C",[6],2.02%
same,"viability, T/C",[7],99.6%
same,"viability, T/C",[8],103%
same,"viability, T/C",[9],111%
same,"viability, T/C",[10],101%
same,"viability, T/C",[11],8.04%
same,"viability, T/C",[12],1.98%
same,"viability, T/C",[13],96.8%
same,"viability, T/C",[14],97.2%
same,"viability, T/C",[15],110%
same,"viability, T/C",[16],102%
same,"viability, T/C",[17],8.92%
same,"viability, T/C",[18],1.93%
same,"viability, T/C",[19],95.3%
same,"viability, T/C",[20],108%
same,"viability, T/C",[21],113%
same,"viability, T/C",[22],102%
same,"viability, T/C",[23],8.33%
same,"viability, T/C",[24],2.74%
same,"viability, T/C",[25],104%
same,"viability, T/C",[26],104%
same,"viability, T/C",[27],112%
same,"viability, T/C",[28],88.2%
same,"viability, T/C",[29],9.59%
same,"viability, T/C",[30],4.27%
same,"viability, T/C",[31],105%
same,"viability, T/C",[32],102%
same,"viability, T/C",[33],101%
same,"viability, T/C",[34],64.6%
same,"viability, T/C",[35],3.41%
same,"viability, T/C",[36],1.03%
CC1COCCN1c1cc(C2(O)CC3CCC(C2)O3)c2cnn(-c3ccn[nH]3)c2n1 (stereo not drawn) + Cc1cnc(CNC(=O)c2c(=O)c3ccc(N4CCCN(C)CC4)nc3n3c2sc2ccccc23)cn1,IC50,second compound 0.0316 µM,< 31.6 nM
same,IC50,second compound 0.1 µM,< 31.6 nM
same,IC50,second compound 0.316 µM,< 31.6 nM
same,IC50,second compound 1 µM,< 31.6 nM
same,IC50,second compound 3.16 µM,< 31.6 nM
same,IC50,second compound 10 µM,< 31.6 nM
same,"viability, T/C",[1],17.9%
same,"viability, T/C",[2],6.32%
same,"viability, T/C",[3],6.87%
same,"viability, T/C",[4],4.01%
same,"viability, T/C",[5],4.28%
same,"viability, T/C",[6],3.82%
same,"viability, T/C",[7],8.59%
same,"viability, T/C",[8],4.79%
same,"viability, T/C",[9],5.61%
same,"viability, T/C",[10],4.59%
same,"viability, T/C",[11],3.77%
same,"viability, T/C",[12],3.82%
same,"viability, T/C",[13],6.96%
same,"viability, T/C",[14],6.64%
same,"viability, T/C",[15],7.05%
same,"viability, T/C",[16],5.35%
same,"viability, T/C",[17],4.24%
same,"viability, T/C",[18],3.79%
same,"viability, T/C",[19],5.69%
same,"viability, T/C",[20],6.03%
same,"viability, T/C",[21],7.24%
same,"viability, T/C",[22],5.15%
same,"viability, T/C",[23],5.42%
same,"viability, T/C",[24],4.18%
same,"viability, T/C",[25],4.9%
same,"viability, T/C",[26],5.03%
same,"viability, T/C",[27],5.23%
same,"viability, T/C",[28],5.64%
same,"viability, T/C",[29],5.02%
same,"viability, T/C",[30],3.38%
same,"viability, T/C",[31],0.04%
same,"viability, T/C",[32],0.08%
same,"viability, T/C",[33],0.11%
same,"viability, T/C",[34],0.07%
same,"viability, T/C",[35],0.15%
same,"viability, T/C",[36],0.14%
